From patent EP4353225A1, “NUTRACEUTICAL OR PHARMACEUTICAL COMPOSITION FOR THE TREATMENT OF PELVIC PAIN” (Erbozeta S.p.A., priority 2022, dated 2024)

Columns and labels:
[1] = system: transcription factor Nf-kB; assay: Nuclear levels of transcription factor Nf-kB in T24 bladder urothelium cells exposed to THP-1 conditioned media; format: cell-based, human; details: T24 cells 4 h
Procedure: (§1) Based on the results of the cytotoxicity experiments, the medium conditioned on THP-1 to be used to study the possible anti-inflammatory activity on the bladder urothelium was obtained by exposing for 2 h the differentiated THP-1 cells to the concentrations of the three functional ingredients and the MIX corresponding to 600, 400, 200, 100, 50 and 25 µg/mL for the MICRONIZED PEA, 15, 10, 5, 2.5, 1.25, 0.625 µg/mL for the DRY MARITIME PINE EXTRACT, 75, 50, 25, 12.5, 6.25, 3.125 µg/mL for HEMP OIL and 690, 460, 230, 115, 57.5 and 28.75 µg/mL for the MIX, respectively. At the end of this incubation, the cells were treated for a further 6 h with the inflammatory stimulus E. coli in the presence of the different treatments. Cells exposed only with the inflammatory stimulus in the absence of pre-treatment were used as a positive control of inflammation.
(§2) The specific anti-inflammatory activity on the bladder urothelium of the three functional ingredients and the MIX was evaluated on an in vitro bladder urothelium epithelium composed of the T24 cell line (ATCC HTB-4TM). T24 cells were exposed for 4 h to conditioned media obtained by treating THP-1 cells differentiated into macrophages with different concentrations of the functional ingredients and MIX, and in the presence of E. coli. At the end of treatment, T24 cells were detached with trypsin, centrifuged, and lysed by sonication in lysis buffer. The supernatant obtained following centrifugation at 10,000 g for 10 min at 4 °C was stored at -80 °C. An extended analysis of the impact of functional ingredients and MIX on inflammation was performed using an assay for the determination of the transcription factor Nf-kB (Abcam) and the evaluation of the expression of pro-inflammatory cytokines with an array of 23 human cytokines (Raybiotech), following the manufacturer's instructions. The cytokines interleukin 1β (IL-1β), interleukin 6 (IL-6), and interleukin 8 (IL-8) were quantified by ELISA assay.
(§3) The results are reported expressed as fold change, calculated as the ratio between the values obtained from the respective treatments on the control of inflammation. As such, the fold change is adimensional.

[2] = system: THP-1 differentiated into macrophages; assay: Cytotoxicity / cell viability of differentiated THP-1 in the presence of E. coli (ATP assay); format: cell-based; details: 2 h pre-treatment + 6 h E. coli
Procedure: Human THP-1 monocytes (ATCC® TIB-202TM) were maintained in THP-1 complete medium (THP-1 CCM) and cultured in a controlled atmosphere at 37 °C. Differentiation into macrophages was induced by incubation with phorbol myristate acetate (PMA) for 24 h. The culture medium was then replaced and the cells left with fresh medium for another 24 h before being exposed to the three functional ingredients, their MIX and the inflammatory stimulus, E. coli.
The cytotoxicity of the three functional ingredients and their MIX was evaluated on a THP-1 immune system model differentiated into macrophages. Based on the method of intake of the formulation, a digestion volume of 2 liters was considered in order to mimic as much as possible the physiological condition of the average volume of liquid contained in the stomach during the digestive process. Cytotoxicity was carried out by constructing a dose-response curve at increasing concentrations of the individual functional ingredients and the MIX in order to identify the maximum concentration usable for subsequent tests. The following concentrations were therefore tested on THP-1: from 50 µg/mL to 600 µg/mL for PEA, from 1.25 µg/mL to 15 µg/mL for DRY MARITIME PINE EXTRACT, from 6.25 µg/mL to 75 µg/mL for HEMP OIL and from 57.5 µg/mL to 690 µg/mL for the MIX. Based on the results of the dose-response curves, cell viability analysis was not performed at higher concentrations due to mortality caused by the mixture at the highest concentration tested. The concentrations used for subsequent experiments were selected in this concentration range. The three functional ingredients and the MIX were dissolved in THP-1 CCM in the absence of antibiotic and in the presence of 1.18 mg/mL of bile as surfactant. The suspensions were incubated under stirring overnight to increase the passage of the functional ingredients into solution and, the following day, the THP-1 cells were washed with Hank's Balanced Salt Solution (HBSS) and pre-treated for 2 h with the different concentrations of the individual functional ingredients and the MIX. At the end of this incubation, the pro-inflammatory stimulus E. coli (1 × 10^6 CFU/mL) was added to the treated cells for a further 6 h. Cells treated only with E. coli were used as a negative control, while cells treated with 10 µM staurosporine were used as a positive cell death control. At the end of the 8 h of treatment, cell viability was assessed by ATP assay (PerkinElmer) to avoid any possible interference from the bacteria present that may occur using other tests such as MTS.

[3] = system: IL-8; assay: ELISA of IL-8 in T24 bladder urothelium cells exposed to THP-1 conditioned media; format: cell-based, human; details: T24 cells 4 h
Procedure: as §1, §2, §3

[4] = system: GRO alpha; assay: Cytokine array (23 human cytokines) in T24 bladder urothelium cells exposed to THP-1 conditioned media: GRO alpha; format: cell-based; details: T24 cells 4 h
Procedure: as §1, §2, §3

[5] = system: GM-CSF; assay: Cytokine array (23 human cytokines) in T24 bladder urothelium cells exposed to THP-1 conditioned media: GM-CSF; format: cell-based; details: T24 cells 4 h
Procedure: as §1, §2, §3

[6] = system: IL-6; assay: ELISA of IL-6 in T24 bladder urothelium cells exposed to THP-1 conditioned media; format: cell-based, human; details: T24 cells 4 h
Procedure: as §1, §2, §3

[7] = system: IL-1β; assay: ELISA of IL-1β in T24 bladder urothelium cells exposed to THP-1 conditioned media; format: cell-based, human; details: T24 cells 4 h
Procedure: as §1, §2, §3

[8] = system: GRO a/b/g; assay: Cytokine array (23 human cytokines) in T24 bladder urothelium cells exposed to THP-1 conditioned media: GRO a/b/g; format: cell-based; details: T24 cells 4 h
Procedure: as §1, §2, §3

[9] = Condition 1: MICRONIZED PEA 600, MARITIME PINE EXTRACT 15, HEMP OIL 75, MIX 690 µg/mL (1200, 30, 150, 1380 mg)
[10] = Condition 2: MICRONIZED PEA 400, MARITIME PINE EXTRACT 10, HEMP OIL 50, MIX 460 µg/mL (800, 20, 100, 920 mg)
[11] = Condition 3: MICRONIZED PEA 200, MARITIME PINE EXTRACT 5, HEMP OIL 25, MIX 230 µg/mL (400, 10, 50, 460 mg)
[12] = Condition 4: MICRONIZED PEA 100, MARITIME PINE EXTRACT 2.5, HEMP OIL 12.5, MIX 115 µg/mL (200, 5, 25, 230 mg)
[13] = Condition 5: MICRONIZED PEA 50, MARITIME PINE EXTRACT 1.25, HEMP OIL 6.25, MIX 57.5 µg/mL (100, 2.5, 12.5, 115 mg)
[14] = Condition 6: MICRONIZED PEA 25, MARITIME PINE EXTRACT 0.625, HEMP OIL 3.125, MIX 28.75 µg/mL (50, 1.25, 6.25, 57.5 mg)

For `CCCCCCCCCCCCCCCC(=O)NCCO` [MICRONIZED PEA, palmitoylethanolamide], which “Nf-kB (Fold change vs Control) Average” value [1, 9] is on record?
Its value is 2.89 Fold change.

And the “Nf-kB (Fold change vs Control) Average” value [1, 10]?
The value was 6.16 Fold change.

And the “Nf-kB (Fold change vs Control) Average” value [1, 11]?
The value was 0.12 Fold change.

What about the “Nf-kB (Fold change vs Control) Average” value [1, 12] of the same compound?
Its value is 0.75 Fold change.

And the “Nf-kB (Fold change vs Control) Average” value [1, 13]?
The value was 0.57 Fold change.

What about the “Nf-kB (Fold change vs Control) Average” value [1, 14] of the same compound?
The value was 0.43 Fold change.

And the “Nf-kB levels (nuclear translocation)” value ([1]; result in words, over the concentrations tested)?
Its value is “reduces the nuclear translocation of the transcription factor NF-κB starting from 25 µg/mL (50 mg) up to 200 µg/mL (400 mg)”.

What about the Viability ([2]; MICRONIZED PEA 50 µg/mL (100 mg)) of the same compound?
Its Viability is 73.2 ± 9.5%.

And the Viability ([2]; MICRONIZED PEA 100 µg/mL (200 mg))?
Its Viability is 106.5 ± 5.6%.

What about the Viability ([2]; MICRONIZED PEA 300 µg/mL (600 mg)) of the same compound?
The Viability was 86.5 ± 5.9%.

What about the Viability ([2]; MICRONIZED PEA 500 µg/mL (1000 mg)) of the same compound?
Its Viability is 71.9 ± 1.3%.

What about the Viability ([2]; MICRONIZED PEA 600 µg/mL (1200 mg)) of the same compound?
The Viability was 73.9 ± 19.5%.

What about the “IL-8 (Fold change vs Control) Average” value [3, 9] of the same compound?
Its value is 0.55 Fold change.

And the “IL-8 (Fold change vs Control) Average” value [3, 10]?
The value was 0.49 Fold change.

What about the “IL-8 (Fold change vs Control) Average” value [3, 11] of the same compound?
The value was 0.51 Fold change.

And the “IL-8 (Fold change vs Control) Average” value [3, 12]?
Its value is 0.54 Fold change.

And the “IL-8 (Fold change vs Control) Average” value [3, 13]?
The value was 0.68 Fold change.

What about the “IL-8 (Fold change vs Control) Average” value [3, 14] of the same compound?
Its value is 0.69 Fold change.

What about the “GRO alpha (Fold change vs Control) Average” value [4, 9] of the same compound?
Its value is 1.49 Fold change.

What about the “GRO alpha (Fold change vs Control) Average” value [4, 10] of the same compound?
The value was 0.79 Fold change.

And the “GRO alpha (Fold change vs Control) Average” value [4, 11]?
Its value is 1.28 Fold change.

What about the “GRO alpha (Fold change vs Control) Average” value [4, 12] of the same compound?
The value was 1.23 Fold change.

What about the “GRO alpha (Fold change vs Control) Average” value [4, 13] of the same compound?
The value was 0.91 Fold change.

And the “GRO alpha (Fold change vs Control) Average” value [4, 14]?
The value was 1.17 Fold change.

What about the “GM-CSF fold change vs control” value [5, 9] of the same compound?
Its value is 1.01 Fold change.

What about the “GM-CSF fold change vs control” value [5, 10] of the same compound?
Its value is 1.1 Fold change.

What about the “GM-CSF fold change vs control” value [5, 11] of the same compound?
The value was 0.9 Fold change.

And the “GM-CSF fold change vs control” value [5, 12]?
The value was 0.21 Fold change.

What about the “GM-CSF fold change vs control” value [5, 13] of the same compound?
The value was 1.15 Fold change.

What about the “GM-CSF fold change vs control” value [5, 14] of the same compound?
Its value is 1.19 Fold change.

And the “IL-6 (Fold change vs Control) Average” value [6, 9]?
Its value is 0.48 Fold change.

What about the “IL-6 (Fold change vs Control) Average” value [6, 10] of the same compound?
The value was 0.34 Fold change.

And the “IL-6 (Fold change vs Control) Average” value [6, 11]?
The value was 0.34 Fold change.

And the “IL-6 (Fold change vs Control) Average” value [6, 12]?
The value was 0.33 Fold change.

And the “IL-6 (Fold change vs Control) Average” value [6, 13]?
Its value is 0.38 Fold change.

And the “IL-6 (Fold change vs Control) Average” value [6, 14]?
The value was 0.45 Fold change.

And the “IL-1β (Fold change vs Control) Average” value [7, 9]?
The value was 0.14 Fold change.

And the “IL-1β (Fold change vs Control) Average” value [7, 10]?
The value was 0.25 Fold change.

What about the “IL-1β (Fold change vs Control) Average” value [7, 11] of the same compound?
The value was 0.15 Fold change.

What about the “IL-1β (Fold change vs Control) Average” value [7, 12] of the same compound?
The value was 0.25 Fold change.

And the “IL-1β (Fold change vs Control) Average” value [7, 13]?
Its value is 0.30 Fold change.

And the “IL-1β (Fold change vs Control) Average” value [7, 14]?
The value was 0.30 Fold change.

And the “GRO a/b/g (Fold change vs Control) Average” value [8, 9]?
The value was 1.14 Fold change.

And the “GRO a/b/g (Fold change vs Control) Average” value [8, 10]?
The value was 0.92 Fold change.

What about the “GRO a/b/g (Fold change vs Control) Average” value [8, 11] of the same compound?
The value was 0.81 Fold change.

And the “GRO a/b/g (Fold change vs Control) Average” value [8, 12]?
Its value is 0.58 Fold change.

And the “GRO a/b/g (Fold change vs Control) Average” value [8, 13]?
Its value is 1 Fold change.

What about the “GRO a/b/g (Fold change vs Control) Average” value [8, 14] of the same compound?
The value was 1.13 Fold change.
